Test systems include SK-MEL-2 melanoma; HCC-2998 colon; SK-MEL-28 melanoma; OVCAR-5 ovarian; DU-145 prostate; HCT-15 colon; MCF7 breast; A549 NSCLC; ACHN renal; MOLT-4 leukemia.
What all share (experiment): DTP human tumour cell line panel, 48 h

Data on 8 compounds can be found in PubChem BioAssay (NCI).

SMILES strings stand for the structures.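 Test compounds were applied to cells in 96-well plates for 48 hours at 5 doses. GI50: concentration for 50% inhibition of growth. The concentration for full growth arrest is given as TGI.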

Broadly, the TGI is the concentration giving total growth inhibition. Low readings indicate greater sensitivity of the cells, high ones lower sensitivity of the cells. With `COC(=O)c1sc(C(=O)OC)c2c1CSC2`, the concentration for total growth inhibition (TGI) in the assay with SK-MEL-2 melanoma, in the assay with HCC-2998 colon, in the assay on SK-MEL-28 melanoma, with OVCAR-5 ovarian, in the assay on DU-145 prostate and in the assay with HCT-15 colon was over 100 µM each time. The TGI in the assay with MCF7 breast, in the assay with A549 NSCLC, in the assay on ACHN renal and in the assay with MOLT-4 leukemia was over 100 µM each time.

The term GI50 denotes the concentration at which growth is held to half of that of the control. As to `O=C(c1ccc2ncc(-c3nc(NC4CC4)ncc3F)n2c1)N1CCOCC1`, the GI50 in the assay on SK-MEL-2 melanoma is 1.66 µM; in the assay with HCC-2998 colon it was 3.01 µM; with SK-MEL-28 melanoma, 2.47 µM; in the assay on OVCAR-5 ovarian it was 2.16 µM; in the assay with DU-145 prostate, 2.68 µM; with HCT-15 colon, 2.51 µM. The GI50 in the assay with MCF7 breast is 2.71 µM; with A549 NSCLC, 2.48 µM; in the assay with ACHN renal it was 1.56 µM; in the assay with MOLT-4 leukemia, 2.48 µM. In addition, the total growth inhibition concentration (TGI) with SK-MEL-2 melanoma was 3.81 µM; in the assay with HCC-2998 colon, 8.99 µM; in the assay with SK-MEL-28 melanoma it was 7.6 µM; in the assay with OVCAR-5 ovarian it was 8.97 µM; with DU-145 prostate, over 100 µM; in the assay with HCT-15 colon it was over 100 µM. Further, the TGI is 11 µM in the assay with MCF7 breast, over 100 µM in the assay on A549 NSCLC, 12.4 µM in the assay on ACHN renal and 7.1 µM in the assay on MOLT-4 leukemia.

Consider `N#Cc1cnc2cc(OC[C@@H](O)CO)c(NC(=O)CC3CSSC3)cc2c1Nc1ccc(OCc2cccc(F)c2)c(Cl)c1`, for which the GI50 in the assay on SK-MEL-2 melanoma is 0.117 µM; with HCC-2998 colon, 0.164 µM; in the assay with SK-MEL-28 melanoma, 0.0632 µM; in the assay on OVCAR-5 ovarian, 0.797 µM; in the assay with DU-145 prostate it was 0.131 µM; in the assay with HCT-15 colon, 1.63 µM. For the same compound, the GI50 is 0.0857 µM in the assay with MCF7 breast, 0.842 µM with A549 NSCLC, 1.1 µM with ACHN renal and 0.0736 µM with MOLT-4 leukemia. In addition, the TGI came to 0.286 µM in the assay on SK-MEL-2 melanoma; 0.506 µM in the assay on HCC-2998 colon; 0.136 µM in the assay with SK-MEL-28 melanoma; 1.59 µM in the assay on OVCAR-5 ovarian; 0.398 µM in the assay on DU-145 prostate; 6.51 µM in the assay with HCT-15 colon. Moreover, the TGI with MCF7 breast was determined as 0.182 µM; in the assay on A549 NSCLC, 1.72 µM; in the assay on ACHN renal, 2.87 µM; with MOLT-4 leukemia, 0.174 µM.

Turning to `Nc1ccc(S(=O)(=O)C23CC4CC(CC(C4)C2)C3)cc1`, the concentration for total growth inhibition (TGI) in the assay on SK-MEL-2 melanoma, in the assay on HCC-2998 colon, with SK-MEL-28 melanoma, in the assay with OVCAR-5 ovarian, in the assay on DU-145 prostate and in the assay on HCT-15 colon was over 100 µM in each case. For the same compound, the TGI in the assay with MCF7 breast, in the assay with A549 NSCLC and in the assay with ACHN renal was over 100 µM throughout.

In the case of `CCN1C(=S)N(CC)C2C1NC(=S)N2/N=C/C=C/c1ccccc1` (stereo not given), the GI50 with SK-MEL-2 melanoma was 1.62 µM; with HCC-2998 colon it was 2.84 µM; in the assay with SK-MEL-28 melanoma, 4.81 µM; in the assay with OVCAR-5 ovarian it was 3.92 µM; in the assay with DU-145 prostate it was 2.42 µM; with HCT-15 colon, 0.77 µM. The GI50 in the assay with MCF7 breast was 0.513 µM; in the assay with A549 NSCLC, 2.52 µM; in the assay with ACHN renal, 4.87 µM; with MOLT-4 leukemia, 1.02 µM. Also, the TGI in the assay with SK-MEL-2 melanoma is 13.7 µM; in the assay on HCC-2998 colon, 16.9 µM; in the assay with SK-MEL-28 melanoma, 21 µM; with OVCAR-5 ovarian, 16.9 µM; with DU-145 prostate, 12.2 µM; in the assay on HCT-15 colon, 14.3 µM. Besides, the TGI in the assay with MCF7 breast is 16.4 µM; with A549 NSCLC, 17.8 µM; with ACHN renal it was 18.9 µM; with MOLT-4 leukemia, 25.4 µM.

As for `Clc1ccc2[nH]cc(-c3nc(-c4c[nH]c5ncccc45)cs3)c2c1`, the GI50 with SK-MEL-2 melanoma is 6.51 µM; in the assay on HCC-2998 colon, 4.63 µM; with SK-MEL-28 melanoma, 6.43 µM; with OVCAR-5 ovarian, 5.63 µM; in the assay with DU-145 prostate it was 4.23 µM; in the assay with HCT-15 colon, 2.6 µM. In addition, the GI50 is 2.46 µM in the assay on MCF7 breast, 2.94 µM with A549 NSCLC, 2.82 µM with ACHN renal and 2.73 µM in the assay with MOLT-4 leukemia. Further, the TGI with SK-MEL-2 melanoma was 23.7 µM; in the assay on HCC-2998 colon, 21.8 µM; in the assay with SK-MEL-28 melanoma it was 20.1 µM; in the assay with OVCAR-5 ovarian, 59.5 µM; in the assay on DU-145 prostate, 21.4 µM; in the assay on HCT-15 colon, 7.9 µM. The TGI in the assay on MCF7 breast was 16.5 µM; in the assay with A549 NSCLC, 62.4 µM; in the assay with ACHN renal, over 100 µM; with MOLT-4 leukemia it was 25.6 µM.

Regarding `CN(C)CCCN1c2nc3ccccc3cc2Sc2cc3ccccc3nc21`, the GI50 in the assay on SK-MEL-2 melanoma is 1.3 µM; in the assay with HCC-2998 colon, 1.65 µM; in the assay with SK-MEL-28 melanoma, 1.04 µM; in the assay with OVCAR-5 ovarian it was 1.54 µM; in the assay on DU-145 prostate, 1.65 µM; with HCT-15 colon it was 1.33 µM. The GI50 with MCF7 breast is 0.859 µM; in the assay on ACHN renal, 1.55 µM; in the assay on MOLT-4 leukemia, 0.892 µM. Moreover, the TGI stood at 2.84 µM in the assay with SK-MEL-2 melanoma; 3.26 µM in the assay with HCC-2998 colon; 2.21 µM with SK-MEL-28 melanoma; 2.97 µM in the assay on OVCAR-5 ovarian; 3.01 µM in the assay with DU-145 prostate; 2.87 µM with HCT-15 colon. Also, the TGI with MCF7 breast was found to be 2.18 µM; with ACHN renal it was 2.94 µM; in the assay with MOLT-4 leukemia, 2.31 µM.

For the compound `Cn1ncc2c(N)nc(N3CCCCC3)nc21`, the GI50 was 23 µM with SK-MEL-2 melanoma; 18.6 µM with HCC-2998 colon; 24.1 µM with SK-MEL-28 melanoma; 38.5 µM with OVCAR-5 ovarian; 19.2 µM in the assay with DU-145 prostate; 26.2 µM with HCT-15 colon. Moreover, the GI50 is 17.1 µM in the assay with MCF7 breast, 66.1 µM with A549 NSCLC and 33.6 µM in the assay with ACHN renal. For the same compound, the TGI in the assay with SK-MEL-2 melanoma was 71.6 µM; in the assay with HCC-2998 colon, 58.6 µM; in the assay with SK-MEL-28 melanoma it was over 100 µM; with OVCAR-5 ovarian, over 100 µM; in the assay with DU-145 prostate, 74.7 µM; with HCT-15 colon it was 82.5 µM. For the same compound, the TGI in the assay with MCF7 breast was 39.9 µM; in the assay on A549 NSCLC it was over 100 µM; with ACHN renal, over 100 µM.
